# Data taken from US20240425500A1 (priority 2021, published 2024).
# Columns and labels:
# [1] = system: Plasmopara viticola; test: whole plant or invertebrate; assay type: in vivo; details: foliar, read-out: control of Plasmopara viticola compared to untreated control
# [2] = system: Pythium ultimum; test: Pythium ultimum / liquid culture (seedling damping off); assay type: cell-based; details: Globisporangium ultimum, liquid culture in PDB, 24 °C, 2-3 days after application, read-out: control of Pythium ultimum (inhibition of growth, photometric) compared to untreated control
# Summary of the method: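 Mycelia fragments and oospores from fresh liquid culture mixed into potato dextrose broth and added to compound in DMSO. Incubated at 24° C.; growth inhibition read photometrically 2–3 days after application.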
# [3] = system: Phytophthora infestans; test: whole plant or invertebrate; assay type: in vivo; details: in Solanum lycopersicum, foliar, read-out: control of Phytophthora infestans compared to untreated control
Compound,pest or weed control at 200 ppm [1],inhibition at 20 ppm [2],pest or weed control at 200 ppm [3]
"COC(=O)Nc1ccc(-c2cnc3ccc(C(=O)N(C)c4ccc(Cl)cc4)cn23)cc1 [Compound 2, methyl N-[4-[6-[(4-chlorophenyl)-methyl-carbamoyl]imidazo[1,2-a]pyridin-3-yl]phenyl]carbamate]",≥ 80%,≥ 80%,≥ 80%
"CC(=O)Nc1ccc(-c2cnc3ccc(C(=O)N(C)c4ccc(Cl)cc4)cn23)cn1 [Compound 3, 3-(6-acetamido-3-pyridyl)-N-(4-chlorophenyl)-N-methyl-imidazo [1,2-a]pyridine-6-carboxamide]",≥ 80%,≥ 80%,≥ 80%
"COC(=O)Nc1ccc(-c2cnc3ccc(C(=O)N(C)c4ccc(Cl)cc4)cn23)cn1 [Compound 4, methyl N-[5-[6-[(4-chlorophenyl)-methyl-carbamoyl]imidazo[1,2-a]pyridin-3-yl]-2-pyridyl]carbamate]",≥ 80%,≥ 80%,≥ 80%
"COC(=O)Nc1ccc(-c2cnc3ccc(C(=O)N(C)c4ccc(C#N)cc4)cn23)cc1 [Compound 6, methyl N-[4-[6-[(4-cyanophenyl)-methyl-carbamoyl]imidazo[1,2-a]pyridin-3-yl]phenyl]carbamate]",≥ 80%,≥ 80%,≥ 80%
"COC(=O)Nc1ccc(-c2cnc3ccc(C(=O)N(C)c4cccc(OC)c4)cn23)cc1 [Compound 7, methyl N-[4-[6-[(3-methoxyphenyl)-methyl-carbamoyl]imidazo[1,2-a]pyridin-3-yl]phenyl]carbamate]",≥ 80%,≥ 80%,≥ 80%
"COC(=O)Nc1ccc(-c2cnc3ccc(C(=O)N(C)c4ccc(F)cc4)cn23)cc1 [Compound 11, methyl N-[4-[6-[(4-fluorophenyl)-methyl-carbamoyl]imidazo[1,2-a]pyridin-3-yl]phenyl]carbamate]",≥ 80%,≥ 80%,≥ 80%
"COC(=O)Nc1ccc(-c2cnc3ccc(C(=O)N(C)c4ccc(C#N)cc4)cn23)cn1 [Compound 15, methyl N-[5-[6-[(4-cyanophenyl)-methyl-carbamoyl]imidazo[1,2-a]pyridin-3-yl]-2-pyridyl]carbamate]",≥ 80%,≥ 80%,≥ 80%
"COC(=O)Nc1ccc(-c2cnc3c(C)cc(C(=O)N(C)c4ccc(Cl)cc4)cn23)cc1 [Compound 19, methyl N-[4-[6-[(4-chlorophenyl)-methyl-carbamoyl]-8-methyl-imidazo[1,2-a]pyridin-3-yl]phenyl]carbamate]",≥ 80%,≥ 80%,≥ 80%
"COC(=O)Nc1ccc(-c2cnc3ccc(C(=O)N(C)c4ccc(F)cc4)cn23)cn1 [Compound 25, methyl N-[5-[6-[(4-fluorophenyl)-methyl-carbamoyl]imidazo[1,2-a]pyridin-3-yl]-2-pyridyl]carbamate]",≥ 80%,≥ 80%,≥ 80%
"COC(=O)Nc1ccc(-c2cnc3ccc(C(=O)N(C)c4ccnc(OC)c4)cn23)cc1 [Compound 26, methyl N-[4-[6-[(2-methoxy-4-pyridyl)-methyl-carbamoyl]imidazo[1,2-a]pyridin-3-yl]phenyl]carbamate]",≥ 80%,≥ 80%,≥ 80%
"COC(=O)Nc1ccc(-c2cnc3ccc(C(=O)N(c4ccc(Cl)cc4)C4CC4)cn23)cc1 [Compound 27, methyl N-[4-[6-[(4-chlorophenyl)-cyclopropyl-carbamoyl]imidazo[1,2-a]pyridin-3-yl]phenyl]carbamate]",≥ 80%,≥ 80%,≥ 80%
"COC(=O)Nc1ccc(-c2cnc3ccc(C(=O)N(CC#N)c4ccc(Cl)cc4)cn23)cc1 [Compound 31, methyl N-[4-[6-[(4-chlorophenyl)-(cyanomethyl)carbamoyl]imidazo[1,2-a]pyridin-3-yl]phenyl]carbamate]",≥ 80%,≥ 80%,≥ 80%
"CCN(C(=O)c1ccc2ncc(-c3ccc(NC(=O)OC)cc3)n2c1)c1ccc(Cl)cc1 [Compound 32, methyl N-[4-[6-[(4-chlorophenyl)-ethyl-carbamoyl]imidazo[1,2-a]pyridin-3-yl]phenyl]carbamate]",≥ 80%,≥ 80%,≥ 80%
"COC(=O)Nc1ccc(-c2cnc3c(OC)cc(C(=O)N(C)c4ccc(Cl)cc4)cn23)cc1 [Compound 37, methyl N-[4-[6-[(4-chlorophenyl)-methyl-carbamoyl]-8-methoxy-imidazo[1,2-a]pyridin-3-yl]phenyl]carbamate]",≥ 80%,≥ 80%,≥ 80%
"COC(=O)Nc1ccc(-c2cnc3ccc(C(=O)N(C)c4ccc(F)c(OC)c4)cn23)cn1 [Compound 45, methyl N-[5-[6-[(4-fluoro-3-methoxy-phenyl)-methyl-carbamoyl]imidazo[1,2-a]pyridin-3-yl]-2-pyridyl]carbamate]",≥ 80%,≥ 80%,≥ 80%
"COC(=O)Nc1ccc(-c2cnc3ccc(C(=O)N(C)c4ccc(Cl)c(C)c4)cn23)cn1 [Compound 46, methyl N-[5-[6-[(4-chloro-3-methyl-phenyl)-methyl-carbamoyl]imidazo[1,2-a]pyridin-3-yl]-2-pyridyl]carbamate]",≥ 80%,≥ 80%,≥ 80%
"COC(=O)Nc1ccc(-c2cnc3ccc(C(=O)N(C)c4ccc(F)c(C)c4)cn23)cn1 [Compound 48, methyl N-[5-[6-[(4-fluoro-3-methyl-phenyl)-methyl-carbamoyl]imidazo[1,2-a]pyridin-3-yl]-2-pyridyl]carbamate]",≥ 80%,≥ 80%,≥ 80%
"COC(=O)Nc1ccc(-c2cnc3ccc(C(=O)N(C)c4ccc(F)c(F)c4)cn23)cn1 [Compound 50, methyl N-[5-[6-[(3,4-difluorophenyl)-methyl-carbamoyl]imidazo[1,2-a]pyridin-3-yl]-2-pyridyl]carbamate]",≥ 80%,≥ 80%,≥ 80%
"COC(=O)Nc1ccc(-c2cnc3ccc(C(=O)N(C)c4ccc(C#N)c(OC)c4)cn23)cn1 [Compound 51, methyl N-[5-[6-[(4-cyano-3-methoxy-phenyl)-methyl-carbamoyl]imidazo[1,2-a]pyridin-3-yl]-2-pyridyl]carbamate]",≥ 80%,≥ 80%,≥ 80%
"COC(=O)Nc1ccc(-c2cnc3ccc(C(=O)N(C)c4ccc(C#N)c(C)c4)cn23)cn1 [Compound 53, methyl N-[5-[6-[(4-cyano-3-methyl-phenyl)-methyl-carbamoyl]imidazo[1,2-a]pyridin-3-yl]-2-pyridyl]carbamate]",≥ 80%,≥ 80%,≥ 80%
"COC(=O)Nc1ccc(-c2cnc3ccc(C(=O)N(C)c4cccc(C(F)F)c4)cn23)cn1 [Compound 57, methyl N-[5-[6-[[3-(difluoromethyl)phenyl]-methyl-carbamoyl]imidazo[1,2-a]pyridin-3-yl]-2-pyridyl]carbamate]",≥ 80%,≥ 80%,≥ 80%
"COC(=O)Nc1ccc(-c2cnc3ccc(C(=O)N(C)c4cccc(OC)c4)cn23)cn1 [Compound 63, methyl N-[5-[6-[(3-methoxyphenyl)-methyl-carbamoyl]imidazo[1,2-a]pyridin-3-yl]-2-pyridyl]carbamate]",≥ 80%,≥ 80%,≥ 80%
"COC(=O)Nc1ccc(-c2cnc3ccc(C(=O)N(C)c4ccnc(OC)c4)cn23)cn1 [Compound 70, methyl N-[5-[6-[(2-methoxy-4-pyridyl)-methyl-carbamoyl]imidazo[1,2-a]pyridin-3-yl]-2-pyridyl]carbamate]",≥ 80%,≥ 80%,≥ 80%
"COC(=O)Nc1ccc(-c2cnc3ccc(C(=O)N(C)c4cccc(I)c4)cn23)cn1 [Compound 73, methyl N-[5-[6-[(3-iodophenyl)-methyl-carbamoyl]imidazo[1,2-a]pyridin-3-yl]-2-pyridyl]carbamate]",≥ 80%,≥ 80%,≥ 80%
"CCCN(C(=O)c1ccc2ncc(-c3ccc(NC(=O)OC)nc3)n2c1)c1ccc(Cl)c(C)c1 [Compound 126, methyl N-[5-[6-[(4-chloro-3-methyl-phenyl)-propyl-carbamoyl]imidazo[1,2-a]pyridin-3-yl]-2-pyridyl]carbamate]",≥ 80%,≥ 80%,
"CCN(C(=O)c1ccc2ncc(-c3ccc(NC(=O)OC)nc3)n2c1)c1ccccc1 [Compound 137, methyl N-[5-[6-[ethyl(phenyl)carbamoyl]imidazo[1,2-a]pyridin-3-yl]-2-pyridyl]carbamate]",≥ 80%,≥ 80%,
"COCCN(C(=O)c1cc(C)c2ncc(-c3ccc(NC(=O)OC)nc3)n2c1)c1ccc(F)c(OC)c1 [Compound 177, methyl N-[5-[6-[(4-fluoro-3-methoxy-phenyl)-(2-methoxyethyl)carbamoyl]-8-methyl-imidazo[1,2-a]pyridin-3-yl]-2-pyridyl]carbamate]",≥ 80%,,≥ 80%
